Results taken from ChEMBL document CHEMBL5241093, “Recent advances in the design and discovery of synthetic tyrosinase inhibitors” (Eur J Med Chem, 2021).

Columns and labels:
Tyrosinase [1] = biological target: T1, Tyrosinase (Agaricus bisporus, UniProt O42713); test: Inhibition of mushroom tyrosinase using L-DOPA as substrate preincubated for 10 mins followed by substrate addition measured after 5 mins
T1 sequence (O42713 whole entry): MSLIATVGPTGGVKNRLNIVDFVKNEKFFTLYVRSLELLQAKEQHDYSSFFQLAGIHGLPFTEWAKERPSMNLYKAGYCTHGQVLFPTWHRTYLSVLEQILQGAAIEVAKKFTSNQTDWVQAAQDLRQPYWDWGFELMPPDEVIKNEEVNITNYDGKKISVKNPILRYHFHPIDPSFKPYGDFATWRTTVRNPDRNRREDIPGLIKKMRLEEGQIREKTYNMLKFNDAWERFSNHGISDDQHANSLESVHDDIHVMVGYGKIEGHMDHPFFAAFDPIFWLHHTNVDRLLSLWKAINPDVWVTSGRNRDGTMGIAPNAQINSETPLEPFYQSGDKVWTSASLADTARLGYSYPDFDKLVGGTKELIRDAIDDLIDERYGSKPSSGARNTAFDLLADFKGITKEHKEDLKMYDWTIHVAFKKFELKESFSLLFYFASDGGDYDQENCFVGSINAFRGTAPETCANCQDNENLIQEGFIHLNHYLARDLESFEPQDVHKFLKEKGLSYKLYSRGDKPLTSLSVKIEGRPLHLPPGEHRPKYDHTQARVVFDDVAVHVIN

Tyrosinase [2] = biological target: T1, Tyrosinase; test: Inhibition of mushroom tyrosinase using L-dopa as substrate assessed as inhibition constant incubated for 30 mins by spectrophotometric analysis
Tyrosinase [3] = biological target: T1, Tyrosinase; test: Inhibition of mushroom tyrosinase using L-dopa as substrate incubated for 30 mins by spectrophotometric analysis
Tyrosinase [4] = biological target: T1, Tyrosinase; test: Inhibition of mushroom tyrosinase using L-DOPA as substrate preincubated for 10 mins followed by substrate addition measured after 20 mins by microtitre plate reader analysis
Tyrosinase [5] = biological target: T1, Tyrosinase; test: Inhibition of mushroom tyrosinase using L-tyrosine as substrate preincubated for 15 mins followed by substrate addition measured after 30 mins by plate reader analysis
Tyrosinase [6] = biological target: T1, Tyrosinase; test: Inhibition of mushroom tyrosinase using L-DOPA as substrate incubated for 10 mins by spectrophotometric assay
Mushroom tyrosinase [7] = biological target: T2, Mushroom tyrosinase (Agaricus bisporus, UniProt O42713+Q00024+C7FF04+C7FF05); test: Inhibition of mushroom diphenolase
Mushroom tyrosinase [8] = biological target: T2, Mushroom tyrosinase; test: Inhibition of mushroom monophenolase
Tyrosinase [9] = biological target: T1, Tyrosinase; test: Inhibition of mushroom tyrosinase using L-DOPA as substrate incubated for 20 mins by microplate reader analysis
[10] = Antioxidant activity assessed as DPPH radical scavenging activity incubated for 30 mins under dark condition by microplate reader analysis; format: functional
Tyrosinase [11] = biological target: T1, Tyrosinase; test: Inhibition of mushroom tyrosinase using L-dopa as substrate incubated for 30 mins by microplate reader analysis
Tyrosinase [12] = biological target: T1, Tyrosinase; test: Inhibition of mushroom tyrosinase using L-DOPA as substrate assessed as diphenolase activity
Tyrosinase [13] = biological target: T1, Tyrosinase; test: Inhibition of mushroom tyrosinase using L-tyrosine as substrate assessed as monophenolase activity
Tyrosinase [14] = biological target: T1, Tyrosinase; test: Inhibition of mushroom tyrosinase using L-DOPA as a substrate assessed as inhibition constant incubated for 5 mins by microplate reader analysis
Tyrosinase [15] = biological target: T1, Tyrosinase; test: Inhibition of mushroom tyrosinase using L-DOPA as substrate preincubated for 10 mins followed by substrate addition measured after 20 mins
Tyrosinase [16] = biological target: T3, Tyrosinase (Homo sapiens, UniProt P14679); test: Inhibition of human his tagged tyrosinase expressed in HEK293 cells using L-DOPA as substrate incubated for 10 mins by microtitre plate reader analysis; format: cell-based
T3 sequence (P14679 whole entry): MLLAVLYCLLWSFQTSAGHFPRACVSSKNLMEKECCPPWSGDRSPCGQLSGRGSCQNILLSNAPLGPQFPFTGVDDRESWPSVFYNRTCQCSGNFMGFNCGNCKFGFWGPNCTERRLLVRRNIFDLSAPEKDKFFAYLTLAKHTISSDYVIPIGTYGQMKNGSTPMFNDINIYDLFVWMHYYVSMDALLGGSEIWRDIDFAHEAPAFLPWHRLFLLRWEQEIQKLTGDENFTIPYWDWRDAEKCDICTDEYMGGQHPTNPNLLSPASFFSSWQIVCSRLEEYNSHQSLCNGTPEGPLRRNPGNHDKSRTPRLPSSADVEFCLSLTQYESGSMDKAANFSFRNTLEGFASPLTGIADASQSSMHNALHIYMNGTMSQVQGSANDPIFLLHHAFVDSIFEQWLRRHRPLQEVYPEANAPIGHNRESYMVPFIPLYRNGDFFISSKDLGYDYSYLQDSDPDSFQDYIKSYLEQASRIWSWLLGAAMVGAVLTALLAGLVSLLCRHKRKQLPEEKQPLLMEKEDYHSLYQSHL

Tyrosinase [17] = biological target: T1, Tyrosinase; test: Inhibition of mushroom tyrosinase using L-DOPA as substrate incubated for 5 mins
Tyrosinase [18] = biological target: T1, Tyrosinase; test: Inhibition of mushroom tyrosinase using L-DOPA as substrate incubated for 20 mins
B16-F10 = test: Inhibition of melanin production in mouse B16-F10 cells assessed reduction in melanin level measured after 72 hrs by ELISA assay relative to control; format: functional
Tyrosinase [19] = biological target: T1, Tyrosinase; test: Inhibition of mushroom tyrosinase using L-DOPA as substrate preincubated for 10 mins followed by substrate addition measured after 20 mins by microtitre plate analysis
Tyrosinase [20] = biological target: T1, Tyrosinase; test: Inhibition of mushroom tyrosinase using L-DOPA as substrate incubated for 10 mins
Tyrosinase [21] = biological target: T1, Tyrosinase; test: Inhibition of mushroom tyrosinase using L-dopa as substrate assessed as diphenolase activity preincubated for 20 mins followed by substrate addition measured after 10 mins by plate reader analysis
Tyrosinase [22] = biological target: T1, Tyrosinase; test: Inhibition of mushroom tyrosinase using L-tyrosine as substrate assessed as monophenolase activity preincubated for 20 mins followed by substrate addition measured after 10 mins by plate reader analysis

SMILES: Clc1ccc(Cn2cc(COc3ccc(-c4nc5ccccc5[nH]4)cc3)nn2)cc1Cl
- IC50 (Tyrosinase [1]): 9.42 µM

SMILES: O=C1/C(=C/c2ccc(O)cc2O)Cc2ccccc21
- Ki (Tyrosinase [2]): 2.4 µM
- IC50 (Tyrosinase [3]): 1.39 µM

SMILES: COc1ccccc1-n1c(SCC(=O)Nc2ccc(Br)cc2)nnc1-c1ccccc1
- IC50 (Tyrosinase [4]): < 0.1 µM

SMILES: O=C(O)/C=C/c1ccc(O)cc1 [COUMARIC ACID]
- IC50 (Tyrosinase [5]): 296 µM

SMILES: CCOC(OCC)c1ccc(/C=C2\CCC/C(=C\c3ccc(C(OCC)OCC)cc3)C2=O)cc1
- IC50 (Tyrosinase [6]): 10.1 µM

SMILES: CCN(CC)c1ccc(Nc2nc(-c3ccc(O)cc3O)cs2)cc1
- IC50 (Mushroom tyrosinase [7]): 10.3 µM
- IC50 (Mushroom tyrosinase [8]): 6.2 µM

SMILES: Cc1cc(OCc2cn(Cc3ccc(F)cc3)nn2)c(C=C2C(=O)NC(=S)NC2=O)cc1Br
- IC50 (Tyrosinase [9]): 24.6 µM
- EC50 [10]: 39.2 µM

SMILES: OCC1CSC(c2ccc(O)cc2O)S1 (centres undefined)
- IC50 (Tyrosinase [11]): 13.9 µM

SMILES: Cc1ccc(NC(=O)CCCN2CCN(C/C=C/c3ccccc3)CC2)c(C)c1
- IC50 (Tyrosinase [4]): < 0.1 µM

SMILES: O=C(OCc1cc(=O)c(O)c[nH]1)[C@H](Cc1ccccc1)NCc1ccccc1
- IC50 (Tyrosinase [12]): 8.97 µM
- IC50 (Tyrosinase [13]): 1.95 µM

SMILES: COc1cc(C2CC(c3cc4ccccc4oc3=O)=NN2c2nc(-c3ccc(Br)cc3)cs2)ccc1OCc1ccccc1 (centres undefined)
- IC50 (Tyrosinase [4]): < 0.1 µM

SMILES: O=C1N=C(Nc2nc3ccccc3s2)S/C1=C\c1ccc(O)cc1O
- IC50 (Tyrosinase [11]): 1.8 µM

SMILES: CCOC(OCC)c1ccc(/C=C2\Cc3ccccc3C2=O)cc1
- IC50 (Tyrosinase [6]): 6.83 µM

SMILES: CC1(C)CC(=O)C2=C(C1)Oc1c(oc(CCl)cc1=O)C2c1ccc(F)cc1 (centres undefined)
- Ki (Tyrosinase [14]): 4 µM

SMILES: Cc1ccc(C(C)C)cc1NC(=O)COC(=O)c1ccc(O)cc1O
- IC50 (Tyrosinase [15]): 11 µM

SMILES: Nc1nc(-c2ccc(O)cc2O)cs1
- EC50 (Tyrosinase [16]): 245 µM

SMILES: OC[C@H]1O[C@H](Oc2cc(CCc3ccc(O)cc3O)cc(O[C@H]3O[C@H](CO)[C@@H](O)[C@H](O)[C@H]3O)c2)[C@H](O)[C@@H](O)[C@@H]1O
- IC50 (Tyrosinase [17]): 12.8 µM

SMILES: COc1cc(/C=N/NC(=O)c2ccc(O)c(OC)c2)ccc1O
- IC50 (Tyrosinase [18]): 10 µM

SMILES: COc1ccc(-c2n[nH]c(S)n2)cc1
- inhibition (INH) (B16-F10): 55%

SMILES: Cc1ccc(C(C)C)cc1NC(=O)COC(=O)/C=C/c1ccc(O)cc1O
- IC50 (Tyrosinase [19]): 0.15 µM

SMILES: Nn1c(S)nnc1N/N=C\c1ccccc1O
- IC50 (Tyrosinase [9]): 1.52 µM

SMILES: COc1cc(/C=C/C(=O)c2ccc(OC)c(OC)c2)ccc1O
- IC50 (Tyrosinase [20]): 0.038 µM

SMILES: Oc1ccc(/C=N\n2c(Cc3ccccc3F)n[nH]c2=S)cc1
- IC50 (Tyrosinase [9]): 6.23 µM

SMILES: N/C(S)=N/N=C/c1ccc([N+](=O)[O-])cc1
- IC50 (Tyrosinase [21]): 1.74 µM
- IC50 (Tyrosinase [22]): 0.05 µM
